# From ChEMBL document CHEMBL1201862, “PubChem BioAssay data set” (2004)
# Activity calls are given as the source filed them. Rule as the data show it, for most assays here: actives have a measured EC50 and inactives only a lower limit.
# Experiments:
# [1] = biological target: T1, Serine/threonine-protein phosphatase (Candida dubliniensis (strain CD36 / CBS 7987 / NCPF 3949 / NRRLY-17841) (Yeast), UniProt B9W6M3); assay: blockers of CaCl2-induced CDRE-lacZ signaling – S. cerevisiae, luminescence, secondary, dose response (AID 2388); assay type: functional, cell-based;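 also: yeast reporter cells carrying a calcineurin-responsive lacZ construct stimulated with calcium chloride; luminescent beta-galactosidase reporter signal in whole cells rather than isolated phosphatase activity; potency for inhibition where a drop in reporter signal means calcineurin blockade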
# T1 sequence (B9W6M3 whole entry): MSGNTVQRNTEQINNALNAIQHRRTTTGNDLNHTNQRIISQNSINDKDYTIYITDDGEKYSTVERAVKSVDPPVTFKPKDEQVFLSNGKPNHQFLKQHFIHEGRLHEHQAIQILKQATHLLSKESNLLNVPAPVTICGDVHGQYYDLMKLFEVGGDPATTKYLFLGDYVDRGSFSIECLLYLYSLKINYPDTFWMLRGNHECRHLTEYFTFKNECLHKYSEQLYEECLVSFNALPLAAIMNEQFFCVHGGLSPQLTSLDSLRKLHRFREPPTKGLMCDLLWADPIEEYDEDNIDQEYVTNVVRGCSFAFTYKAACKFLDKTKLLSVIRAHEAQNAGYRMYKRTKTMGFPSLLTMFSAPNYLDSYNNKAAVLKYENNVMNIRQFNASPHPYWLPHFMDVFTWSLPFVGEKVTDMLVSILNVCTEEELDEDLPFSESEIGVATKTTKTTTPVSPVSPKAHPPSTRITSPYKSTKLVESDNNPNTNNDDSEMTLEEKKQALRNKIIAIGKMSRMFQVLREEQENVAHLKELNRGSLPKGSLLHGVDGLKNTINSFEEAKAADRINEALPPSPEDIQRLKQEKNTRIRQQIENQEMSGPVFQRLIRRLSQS
# [2] = fluconazole-exposed Candida albicans growth modulators – fluorescence, retest, confirmation (AID 2467); assay type: functional, cell-based
# [3] = NIH-3T3 fibroblast cytotoxicity, dose response, cytotoxicity control, cell-based, fluorescence, Alamar Blue, secondary assay (AID 2327); assay type: functional;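 also: NIH-3T3 mouse fibroblasts cultured with fluconazole at 8 µg/mL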
# [4] = biological target: ATP-dependent molecular chaperone HSP82 (Candida albicans (strain WO-1) (Yeast), UniProt C4YTQ8); assay: steroid-induced GRE reporter decrease in yeast – S. cerevisiae, luminescence, Hsp90 inhibitor project, dose response (AID 2400); assay type: functional, cell-based;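 also: beta-galactosidase luminescence from glucocorticoid response element reporter as proxy for Hsp90 function; inhibitor potency where signal loss means Hsp90 inhibition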
# Sequence of ATP-dependent molecular chaperone HSP82 (C4YTQ8 whole entry): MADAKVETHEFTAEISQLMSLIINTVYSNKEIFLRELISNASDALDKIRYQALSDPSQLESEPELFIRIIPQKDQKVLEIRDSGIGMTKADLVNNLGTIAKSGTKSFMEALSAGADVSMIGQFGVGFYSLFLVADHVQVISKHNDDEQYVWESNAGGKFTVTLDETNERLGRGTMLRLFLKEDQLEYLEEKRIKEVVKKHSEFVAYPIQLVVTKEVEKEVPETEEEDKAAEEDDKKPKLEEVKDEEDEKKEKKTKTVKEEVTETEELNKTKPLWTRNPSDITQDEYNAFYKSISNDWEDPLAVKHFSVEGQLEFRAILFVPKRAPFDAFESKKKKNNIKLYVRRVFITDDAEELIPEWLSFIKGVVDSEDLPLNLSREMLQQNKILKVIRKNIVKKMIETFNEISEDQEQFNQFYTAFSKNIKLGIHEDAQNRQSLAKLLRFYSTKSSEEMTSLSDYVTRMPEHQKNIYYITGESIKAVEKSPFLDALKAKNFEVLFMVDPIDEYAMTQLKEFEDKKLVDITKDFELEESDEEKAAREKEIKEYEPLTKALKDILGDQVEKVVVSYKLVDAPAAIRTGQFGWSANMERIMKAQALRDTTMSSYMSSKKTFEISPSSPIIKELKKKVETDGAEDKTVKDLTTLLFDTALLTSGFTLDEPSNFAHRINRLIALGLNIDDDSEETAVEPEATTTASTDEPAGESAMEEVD
# [5] = DRD fibroblast viability loss – cell-based, non-viral oncogenic, luminescence, dose response (AID 1934); assay type: functional; settings: Homo sapiens
# BJ [6] = assay: BJ-TERT fibroblast viability loss – cell-based, RAS-independent, luminescence, dose response (AID 1933); assay type: functional; settings: Homo sapiens
# BJ [7] = assay: cells; assay type: functional, cell-based; settings: Homo sapiens
# BJ [8] = assay: BJ-TERT-LT-ST fibroblast viability loss – cell-based, RAS-independent, luminescence, dose response (AID 1935); assay type: functional; settings: Homo sapiens;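 also: BJ fibroblasts immortalized with TERT plus LT and ST oncogenes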
# [9] = HEK-293T cell viability reduction – luminescence, B-cell screen hits, cytotoxicity control for BCR NF-kB inhibitor project, dose response (AID 489021); assay type: functional, cell-based;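 also: HEK-293T cells carrying an NF-kB luciferase reporter; cells exposed to compound for about 14 hours before viability readout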
# H9c2 = assay: cells; assay type: functional, cell-based; settings: Rattus norvegicus, H9c2, Myocardium;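 also: confirmatory concentration-response retest of ultra-high-throughput screening hits for modulation of myocardial damage; cell death induced by hydrogen peroxide oxidative stress; compound pretreatment for 60 min then peroxide exposure for 2 h; potency is for protecting the cells against peroxide damage rather than for killing them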
# [10] = luciferase reporter signal suppression in cells – H4 neuroglioma cells, luminescence, dose response (AID 1990); assay type: functional, cell-based
# [11] = alpha-synuclein stem-loop luciferase translation blockers – H4 neuroglioma cells, luminescence, confirmation (AID 1988); assay type: functional, cell-based
# [12] = viability of HCT116 lacking mutant beta-catenin – cell-based, human colon tumor, dose response (AID 1045); assay type: functional;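 also: HCT116 colon tumor cells with beta catenin knocked out; cells exposed to compound for 60 hours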
# [13] = biological target: T2, Corticotropin-releasing factor receptor 2/Corticotropin-releasing factor-binding protein (Homo sapiens, UniProt P24387+Q13324); assay: activators of CRF receptor 2 with binding protein – uHTS hits, confirmation (AID 602473); assay type: functional; settings: read-out: EC50_Mean
# T2 sequence (Q13324 whole entry): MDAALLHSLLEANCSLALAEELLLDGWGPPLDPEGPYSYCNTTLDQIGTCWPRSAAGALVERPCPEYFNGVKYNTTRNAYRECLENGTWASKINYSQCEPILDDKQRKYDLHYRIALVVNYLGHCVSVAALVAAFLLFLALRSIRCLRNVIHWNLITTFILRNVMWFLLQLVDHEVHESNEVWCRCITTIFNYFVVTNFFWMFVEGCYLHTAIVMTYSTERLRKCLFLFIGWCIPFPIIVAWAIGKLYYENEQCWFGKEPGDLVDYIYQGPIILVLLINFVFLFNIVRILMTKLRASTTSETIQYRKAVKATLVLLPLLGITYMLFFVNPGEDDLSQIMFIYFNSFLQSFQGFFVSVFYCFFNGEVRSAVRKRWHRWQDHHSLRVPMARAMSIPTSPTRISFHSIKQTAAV
# T2 sequence (P24387 whole entry): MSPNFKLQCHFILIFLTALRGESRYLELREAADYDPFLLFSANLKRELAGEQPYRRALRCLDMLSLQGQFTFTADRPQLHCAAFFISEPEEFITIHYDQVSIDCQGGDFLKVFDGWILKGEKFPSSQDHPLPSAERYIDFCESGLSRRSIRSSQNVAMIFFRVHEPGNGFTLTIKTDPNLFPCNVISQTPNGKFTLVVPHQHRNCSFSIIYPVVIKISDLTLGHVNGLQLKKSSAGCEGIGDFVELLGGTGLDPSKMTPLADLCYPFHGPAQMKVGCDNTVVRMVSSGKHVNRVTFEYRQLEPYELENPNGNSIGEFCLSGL
# [14] = viability of PTEN-deleted HCT116 cells – cell-based, HCT116 PTEN knockout, dose response (AID 1047); assay type: functional;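 also: HCT116 colon tumor cells with PTEN knocked out; cells exposed to compound for 60 hours before readout; potency for loss of cell viability measured by luminescence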
# [15] = Luminescence Cell-Based Dose Response HTS to Identify Inhibitors of 5'UTR Stem-Loop Driven Prion Protein mRNA Translation in H4 Neuroglioblastoma Cells. [Related pubchem assays: 1827 (Project Summary), 1813 (Primary HTS)]; assay type: functional
# HeLa = assay: ATP-based viability loss in HeLa cells – cell-based, CellTiter-Glo luminescence, cherry-pick samples, cytotoxicity control for MITF activator project, dose response (AID 540259); assay type: functional; settings: Homo sapiens
# H4 = assay: Luminescence Cell-Based Dose Response HTS to Identify Activators of 5'UTR Stem-Loop Driven Prion Protein mRNA Translation in H4 Neuroglioblastoma Cells. [Related pubchem assays: 1829 (Project Summary), 1814 (Primary HTS)]; assay type: functional; settings: Homo sapiens
# [16] = Luminescence Cell-Based Dose Confirmation HTS to Identify Activators of 5'UTR Stem-Loop Driven Alpha-Synuclein mRNA Translation in H4 Neuroglioblastoma Cells. [Related pubchem assays: 1829 (Project Summary), 1814 (Primary HTS)]; assay type: functional
# [17] = Luminescence Cell-Based Dose Response HTS to Identify Activators of Luciferase Translation or Activity in H4 […] Cells. [Related pubchem assays: 1829 (Project Summary), 1814 (Primary HTS)]; assay type: functional
# cells [18] = assay type: functional, cell-based
# INS1 = assay: INS-1E survival protection against cytokine death – cell-based, luminescence, retest, dose response (AID 449756); assay type: functional; settings: Rattus norvegicus;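 also: cell death triggered by IL-1 beta plus TNF-alpha plus IFN-gamma mixture; protective hits raise ATP signal compared with cytokine alone wells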
# [19] = Trypanosoma cruzi growth suppression in host cells – NIH3T3 host cells, beta-gal luminescence, confirmation (AID 2044); assay type: functional, cell-based;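 also: intracellular parasites grown in NIH/3T3 mouse fibroblasts as host cells; luminescent beta-galactosidase reporter signal from transgenic T. cruzi replicating inside host cells; inhibitors lower the luminescence signal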
# cells [20] = assay type: functional, cell-based; remark: listed apart in the source
# [21] = NIH3T3 cell viability loss – ATP luminescence, mouse fibroblasts, counter-screen, dose response (AID 2010); assay type: functional, cell-based;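 also: cells exposed to compound for about 90 hours before reading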
# [22] = microbe, parasite or virus in culture; assay type: functional; settings: Mycobacterium tuberculosis
# [23] = biological target: Heat shock protein HSP 90-alpha (Homo sapiens, UniProt P07900); assay type: functional, organism-based
# [24] = viability of uninfected HEp-2 cells – cell-based, HTS, cytotoxicity control for RSV inhibitor project, dose response (AID 2410); assay type: functional; settings: human respiratory syncytial virus
# [25] = Luminescence Cell-Based Dose Retest to Confirm Inhibitors of Cancer Stem Cells. [Related pubchem assays (depositor defined):AID2717, AID2721]; assay type: functional; settings: Homo sapiens
smiles,measurement,setting,value
C=CCNC(S)=Nc1sc2c(c1C(=O)OCC)CC(C)(CC)OC2 (configuration not stated),EC50,[1],> 180 µM (inactive)
same,EC50,[2],0.889 µM (active)
same,EC50,[3],> 150 µM (inconclusive)
same,EC50,[4],19.2 µM (active)
Cc1cc2c(C)cc(O)nc2cc1NC(=O)CCl,EC50,[5],42.2 µM (active)
same,EC50,BJ [6],17.7 µM (active)
same,EC50,BJ [7],> 150 µM (not active)
same,EC50,BJ [8],> 150 µM (not active)
CCCCC(=O)NC(=S)Nc1cccc(NC(=O)c2ccco2)c1,EC50,[1],> 180 µM (inactive)
same,EC50,[2],4.79 µM (active)
same,EC50,[3],> 150 µM (inconclusive)
same,EC50,[4],> 160 µM (inactive)
Cc1csc(NC(=O)CCc2c(C)nc3cc(-c4ccc(Cl)cc4)nn3c2C)n1,IC50,[9],> 80 µM (inactive)
CC(=O)Nc1ccc(Nc2nc(-c3sc(NC(C)=O)nc3C)cs2)cc1,IC50,[9],20.6 µM (inactive)
same,IC50,H9c2,> 79 µM (inactive)
C[C@H]1CC[C@@H]2[C@@H](C)[C@H]3[C@H](C[C@H]4[C@@H]5CC=C6C[C@@H](O[C@@H]7O[C@H](CO)[C@H](O)[C@H](O[C@@H]8O[C@H](CO)[C@@H](O)[C@H](O)[C@H]8O)[C@H]7O[C@@H]7O[C@@H](C)[C@H](O)[C@@H](O)[C@H]7O)CC[C@]6(C)[C@H]5CC[C@]34C)N2C1,EC50,[10],13.5 µM (active)
same,EC50,[11],> 120 µM (not active)
same,EC50,[12],22.1 µM (active)
same,EC50,[13],9.48 µM (active)
same,EC50,[14],25.2 µM (active)
same,EC50,[15],> 120 µM (not active)
c1ccc(-c2cnnc(N3CCCCC3)n2)cc1,AC50,HeLa,191 µM (active)
Cc1ccccc1C(=O)O/N=C(\N)Cc1cccs1,EC50,H4,6.9 µM (active)
same,EC50,[16],> 120 µM (not active)
same,EC50,[17],67.6 µM (active)
same,AC50,HeLa,32 µM (active)
Cc1cccc2c1-c1sc(C(=O)N3CCCCC3)cc1CO2,AC50,HeLa,> 350 µM (inactive)
COc1cccc(/C=N/NC(=O)c2c(C)nc3ccc(Br)cn23)c1O,EC50,[1],> 180 µM (inactive)
same,EC50,[2],0.483 µM (active)
same,EC50,cells [18],126 µM (active)
same,AC50,INS1,0.842 µM (active)
same,EC50,[19],3.06 µM (active)
same,EC50,cells [20],7.35 µM (active)
same,EC50,[21],> 60 µM (inconclusive)
same,EC50,[3],> 160 µM (inactive)
same,EC50,[4],23.8 µM (active)
C(C#CCCCCCCCCC[n+]1ccccc1)#CCCCCCCCCC[n+]1ccccc1,EC50,[1],> 180 µM (inactive)
same,CC50,[22],> 40 µM (active)
same,EC50,[2],0.05 µM (active)
same,EC50,[5],5.68 µM (active)
same,AC50,[23],3.58 µM (active)
same,AC50,INS1,1.67 µM (active)
same,EC50,BJ [6],2.28 µM (inconclusive)
same,EC50,[3],> 150 µM (inactive)
same,EC50,BJ [7],> 150 µM (inconclusive)
same,EC50,[4],> 150 µM (inactive)
same,EC50,BJ [8],6.02 µM (active)
CCCn1nnc2sc3c(c2c1=O)CCC(C)C3 (configuration not stated),EC50,H4,16.2 µM (active)
same,CC50,[24],> 50 µM (active)
same,EC50,[16],41.1 µM (active)
same,EC50,[17],0.528 µM (active)
same,AC50,HeLa,55.9 µM (active)
Cc1c(CCC(=O)NCCCn2ccnc2)c(=O)oc2c(C)c3oc4c(c3cc12)CCCC4,IC50,[9],63.6 µM (inactive)
same,EC50,[10],13.7 µM (active)
same,EC50,[11],14.6 µM (active)
same,EC50,[15],17.8 µM (active)
COc1ccc(C2=NN(c3nc4ccccc4s3)C(=O)C2)cc1,EC50,[1],3.92 µM (active)
same,EC50,[2],> 38 µM (not active)
same,AC50,[25],2.21 µM (active)
same,EC50,[3],> 160 µM (inconclusive)
same,EC50,[4],1.4 µM (active)
CCCS(=O)(=O)Nc1cccc(-c2ccc3nnc(C)n3n2)c1,IC50,[9],> 80 µM (inactive)
